Measurements as given in patent US20260262643A1, “HERBICIDAL BENZOXAZINES” (FMC CORPORATION, priority 2022, published 2026).

How the values were obtained:
[1] = tested on: barnyardgrass; assay: Test D flooded paddy test; format: in vivo, Echinochloa crus-galli; conditions: 250 g ai/ha, applied to paddy water, visual rating after 13 to 14 days, scale 0 to 100 (0 no effect, 100 complete control)
Method in brief: (§1)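 Seedlings reached the 2-leaf stage, then pots were flooded to 3 cm over the soil surface. Compound was applied into the water, depth was maintained, and plants stayed in the greenhouse 13 to 14 days before visual scoring (0–100) relative to controls.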

[2] = tested on: wheat; assay: Test C postemergence; format: in vivo, Triticum aestivum; conditions: 10 days, 0 to 100 scale (0 no effect, 100 complete control)
Method in brief: (§2)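 Seeds in loam–sand blend received preemergence directed soil spray of test chemicals in non-phytotoxic solvent with surfactant; postemergence treatment was applied at one- to two-leaf stage (2–10 cm). After 10 days in greenhouse, injury rated visually versus untreated controls, 0 (no effect) to 100 (complete control).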

[3] = tested on: ragweed; assay: Test C postemergence; format: in vivo, Ambrosia artemisiifolia; conditions: 10 days, 0 to 100 scale (0 no effect, 100 complete control)
Method in brief: as §2

[4] = tested on: rice; assay: Test D flooded paddy test; format: in vivo, Oryza sativa; conditions: 250 g ai/ha, applied to paddy water, visual rating after 13 to 14 days, scale 0 to 100 (0 no effect, 100 complete control)
Method in brief: as §1

[5] = tested on: oat, wild; assay: Test C preemergence; format: in vivo, Avena fatua; conditions: preemergence, 0 to 100 scale (0 no effect, 100 complete control)
Method in brief: as §2

[6] = tested on: sedge, umbrella; assay: Test D flooded paddy test; format: in vivo, Cyperus difformis; conditions: 250 g ai/ha, applied to paddy water, visual rating after 13 to 14 days, scale 0 to 100 (0 no effect, 100 complete control)
Method in brief: as §1

[7] = tested on: soybean; assay: Test C postemergence; format: in vivo, Glycine max; conditions: 10 days, 0 to 100 scale (0 no effect, 100 complete control)
Method in brief: as §2

[8] = tested on: pigweed, palmer; assay: Test C preemergence; format: in vivo, Amaranthus palmeri; conditions: preemergence, 0 to 100 scale (0 no effect, 100 complete control)
Method in brief: as §2

[9] = tested on: green foxtail; assay: Test C postemergence; format: in vivo, Setaria viridis; conditions: 10 days, 0 to 100 scale (0 no effect, 100 complete control)
Method in brief: as §2

[10] = tested on: blackgrass; assay: Test C preemergence; format: in vivo, Alopecurus myosuroides; conditions: preemergence, 0 to 100 scale (0 no effect, 100 complete control)
Method in brief: as §2

[11] = tested on: kochia; assay: Test C postemergence; format: in vivo, Bassia scoparia; conditions: 10 days, 0 to 100 scale (0 no effect, 100 complete control)
Method in brief: as §2

[12] = tested on: ragweed; assay: Test C preemergence; format: in vivo, Ambrosia artemisiifolia; conditions: preemergence, 0 to 100 scale (0 no effect, 100 complete control)
Method in brief: as §2

[13] = tested on: ryegrass, Italian; assay: Test C postemergence; format: in vivo, Lolium multiflorum; conditions: 10 days, 0 to 100 scale (0 no effect, 100 complete control)
Method in brief: as §2

[14] = tested on: corn; assay: Test C preemergence; format: in vivo, Zea mays; conditions: preemergence, 0 to 100 scale (0 no effect, 100 complete control)
Method in brief: as §2

[15] = tested on: galium; assay: Test C postemergence; format: in vivo, Galium aparine; conditions: 10 days, 0 to 100 scale (0 no effect, 100 complete control)
Method in brief: as §2

[16] = tested on: kochia; assay: Test C preemergence; format: in vivo, Bassia scoparia; conditions: preemergence, 0 to 100 scale (0 no effect, 100 complete control)
Method in brief: as §2

[17] = tested on: oat, wild; assay: Test C postemergence; format: in vivo, Avena fatua; conditions: 10 days, 0 to 100 scale (0 no effect, 100 complete control)
Method in brief: as §2

[18] = tested on: green foxtail; assay: Test C preemergence; format: in vivo, Setaria viridis; conditions: preemergence, 0 to 100 scale (0 no effect, 100 complete control)
Method in brief: as §2

[19] = tested on: wheat; assay: Test C preemergence; format: in vivo, Triticum aestivum; conditions: preemergence, 0 to 100 scale (0 no effect, 100 complete control)
Method in brief: as §2

[20] = tested on: barnyardgrass; assay: Test C postemergence; format: in vivo, Echinochloa crusgalli; conditions: 10 days, 0 to 100 scale (0 no effect, 100 complete control)
Method in brief: as §2

[21] = tested on: ryegrass, Italian; assay: Test C preemergence; format: in vivo, Lolium multiflorum; conditions: preemergence, 0 to 100 scale (0 no effect, 100 complete control)
Method in brief: as §2

[22] = tested on: blackgrass; assay: Test C postemergence; format: in vivo, Alopecurus myosuroides; conditions: 10 days, 0 to 100 scale (0 no effect, 100 complete control)
Method in brief: as §2

[23] = tested on: horseweed; assay: Test C postemergence; format: in vivo, Erigeron canadensis; conditions: 10 days, 0 to 100 scale (0 no effect, 100 complete control)
Method in brief: as §2

[24] = tested on: ducksalad; assay: Test D flooded paddy test; format: in vivo, Heteranthera limosa; conditions: 250 g ai/ha, applied to paddy water, visual rating after 13 to 14 days, scale 0 to 100 (0 no effect, 100 complete control)
Method in brief: as §1

[25] = tested on: corn; assay: Test C postemergence; format: in vivo, Zea mays; conditions: 10 days, 0 to 100 scale (0 no effect, 100 complete control)
Method in brief: as §2

[26] = tested on: barnyardgrass; assay: Test C preemergence; format: in vivo, Echinochloa crusgalli; conditions: preemergence, 0 to 100 scale (0 no effect, 100 complete control)
Method in brief: as §2

[27] = tested on: pigweed, palmer; assay: Test C postemergence; format: in vivo, Amaranthus palmeri; conditions: 10 days, 0 to 100 scale (0 no effect, 100 complete control)
Method in brief: as §2

[28] = tested on: soybean; assay: Test C preemergence; format: in vivo, Glycine max; conditions: preemergence, 0 to 100 scale (0 no effect, 100 complete control)
Method in brief: as §2

SMILES: COC(=O)c1ncn(-c2ccc(C)c(C(=O)N3C[C@H](C)Oc4c(Cl)cccc43)c2)n1 [Compound 315]
- Plant response rating, Barnyardgrass (Flood) [1]: 15
- Plant response rating, Wheat ([2]; 500 g ai/ha, postemergence): 90
- Plant response rating, Wheat ([2]; Postemergence, 125 g ai/ha): 80
- Plant response rating, Ragweed ([3]; 500 g ai/ha, postemergence): 70
- Plant response rating, Ragweed ([3]; Postemergence, 125 g ai/ha): 70
- Plant response rating, Rice (Flood) [4]: 10
- Oat, Wild plant response rating ([5]; 500 g ai/ha): 60
- Oat, Wild plant response rating ([5]; Test C, 125 g ai/ha): 0
- Plant response rating, Sedge, Umbrella (Flood) [6]: 60
- Plant response rating, Soybean ([7]; 500 g ai/ha, postemergence): 100
- Plant response rating, Soybean ([7]; Postemergence, 125 g ai/ha): 70
- Pigweed, Palmer plant response rating ([8]; 500 g ai/ha): 100
- Pigweed, Palmer plant response rating ([8]; Test C, 125 g ai/ha): 10
- Plant response rating, Foxtail, Green ([9]; 500 g ai/ha, postemergence): 90
- Plant response rating, Foxtail, Green ([9]; Postemergence, 125 g ai/ha): 80
- Blackgrass plant response rating ([10]; 500 g ai/ha): 50
- Blackgrass plant response rating ([10]; Test C, 125 g ai/ha): 0
- Plant response rating, Kochia ([11]; 500 g ai/ha, postemergence): 50
- Plant response rating, Kochia ([11]; Postemergence, 125 g ai/ha): 40
- Ragweed plant response rating ([12]; 500 g ai/ha): 30
- Ragweed plant response rating ([12]; Test C, 125 g ai/ha): 0
- Plant response rating, Ryegrass, Italian ([13]; 500 g ai/ha, postemergence): 80
- Plant response rating, Ryegrass, Italian ([13]; Postemergence, 125 g ai/ha): 60
- Corn plant response rating ([14]; 500 g ai/ha): 0
- Corn plant response rating ([14]; Test C, 125 g ai/ha): 0
- Plant response rating, Galium ([15]; 500 g ai/ha, postemergence): 70
- Plant response rating, Galium ([15]; Postemergence, 125 g ai/ha): 70
- Kochia plant response rating ([16]; 500 g ai/ha): 0
- Kochia plant response rating ([16]; Test C, 125 g ai/ha): 0
- Plant response rating, Oat, Wild ([17]; 500 g ai/ha, postemergence): 90
- Plant response rating, Oat, Wild ([17]; Postemergence, 125 g ai/ha): 50
- Foxtail, Green plant response rating ([18]; 500 g ai/ha): 90
- Foxtail, Green plant response rating ([18]; Test C, 125 g ai/ha): 30
- Wheat plant response rating ([19]; 500 g ai/ha): 30
- Wheat plant response rating ([19]; Test C, 125 g ai/ha): 0
- Plant response rating, Barnyardgrass ([20]; 500 g ai/ha, postemergence): 80
- Plant response rating, Barnyardgrass ([20]; Postemergence, 125 g ai/ha): 60
- Ryegrass, Italian plant response rating ([21]; 500 g ai/ha): 90
- Ryegrass, Italian plant response rating ([21]; Test C, 125 g ai/ha): 40
- Plant response rating, Blackgrass ([22]; 500 g ai/ha, postemergence): 90
- Plant response rating, Blackgrass ([22]; Postemergence, 125 g ai/ha): 70
- Plant response rating, Horseweed ([23]; 500 g ai/ha, postemergence): 30
- Plant response rating, Horseweed ([23]; Postemergence, 125 g ai/ha): 0
- Plant response rating, Ducksalad (Flood) [24]: 85
- Plant response rating, Corn ([25]; 500 g ai/ha, postemergence): 40
- Plant response rating, Corn ([25]; Postemergence, 125 g ai/ha): 30
- Barnyardgrass plant response rating ([26]; 500 g ai/ha): 90
- Barnyardgrass plant response rating ([26]; Test C, 125 g ai/ha): 0
- Plant response rating, Pigweed, Palmer ([27]; 500 g ai/ha, postemergence): 100
- Plant response rating, Pigweed, Palmer ([27]; Postemergence, 125 g ai/ha): 80
- Soybean plant response rating ([28]; 500 g ai/ha): 0
- Soybean plant response rating ([28]; Test C, 125 g ai/ha): 0
